# Experimental data as given in patent US4472376A, “Pharmaceutical insertion compositions and a process for producing the same” (Toko Yakuhin Kogyo Kabushiki Kaisha, priority 1976, dated 1984).
# Legend:
# [1] = Concentration of 5-fluorouracil in the serum after insertion into the rectum of a rabbit; assay type: in vivo; details: insertion composition of Example 16, rabbit; 3 hours after the insertion
# Protocol: When the pharmaceutical insertion composition of the present invention is inserted into the rectum, its concentration in the serum is as follows:
# A pharmaceutical insertion composition obtained in Example 16 is inserted into the rectum of a rabbit having the body weight of 3.2 kg at the rate of 20 mg of 5-fluoroaracil per 1 kg of the body weight, and the concentration of 5-fluorouracil in the serum after the insertion is measured to show the following results: […]
# [2] = known value; cited from earlier work
# [3] = 5-fluorouracil blood concentration / absorption by other dosage forms, compared with effective concentration in blood; assay type: in vivo
# From the text: Thus, it has been clearly known that the dosage in the form of the insertion composition of the present invention is quite excellent.
compound,measurement,setting,value
O=c1[nH]cc(F)c(=O)[nH]1 [5-fluorouracil],maintenance of effective concentration in blood after rectal insertion of the gel composition,[1],maintains sufficient effective concentration in blood
same,effective concentration in blood,[2],about 0.08 μg/ml
same,absorption from conventional suppository or liquid form,[3]; conventional suppository or liquid,barely absorbed
same,concentration in blood after injection into vein,"[3]; injected into vein, 30 minutes later",less than the effective blood concentration
